According to US8900880B2, “Viral citrullinated peptides and uses thereof” (Toscana Biomarkers S.R.L., priority 2009, dated 2014):
Entries after “also recorded” stand apart in the source; their conditions may differ. Where two headings read alike, the source gives them in different places. Where no end group is shown, it is not given here. [ ]: non-standard residue; d: D form. Cit = NC(=O)NCCC[C@H](N)C(=O)O

Tests used:
[1] = test system: anti-CP IgG antibodies in RA patients' serum; conditions: 100 RA patients; IgG; cut-off 97.5th percentile of normal controls
Procedure: The ability to recognize specific antibodies in RA patients by MAP of formula (V), in comparison with the MAP of formula (VI) was evaluated by ELISA.
MAP of formula (V) and MAP of formula (VI) were diluted respectively to a concentration of 20 μg/ml and 5 μg/ml in PBS, loaded into the wells of a polystyrene micro-titration plate (50 μl/well), and left overnight at +4° C. Upon completion of the coating period, the wells were treated for 1 hour at RT with 3% BSA in PBS. The patients' serum samples (diluted 1:200 in a buffer constituted by 1% BSA, 0.05% Tween X-100 in PBS) were then loaded onto the plate (50 μl/well) and left to incubate for 3 hours at RT. After the incubation period, one washing was performed with 1% PBS Tween X-100 and two washings were performed with PBS (150 μl/well). An anti human-IgG antibody conjugated to the enzyme alkaline phosphatase (50 μl/well), diluted 1:3000 in 1% PBS BSA, 0.05% Tween X-100, was incubated for 3 hours at RT with stirring. Upon completion of the incubation, after three washings as described above, p-nitrophenyl phosphate was added to the wells and the absorbance at a wavelength of 405 nm was determined. The results of the test were expressed as the percentage of positivity, calculated by dividing the absorbance of each serum sample by the absorbance of a positive serum sample the value of which was set arbitrarily at 100.
Serum samples of 100 patients suffering from RA were tested by this method.

[2] = test system: autoantibodies in RA sera; assay: 79 RA patients tested for anti-CCP2, anti-CCP3, anti-VCP1 and anti-VCP2 (FIG. 1); assay type: binding, human
Text: FIG. 1. […] The presence of different populations of autoantibodies is depicted in the block diagram. Number of RA sera positive (+) or negative (−) to anti-CCP2, anti-CCP3, anti-VCP1 [peptide of formula (VI)], and anti-VCP2 [peptide of formula (V)] are shown above the diagram.
Noteworthy, 7/79 (9%) anti-CCP2 and anti-CCP3 negative sera are positive to the peptide of formula (VI); 2/79 (3%) anti-CCP2 and anti-CCP3 negative sera are positive to peptide of formula (V); 1/79 (1%) anti-CCP2 and anti-CCP3 negative serum is positive to both peptides of formula (V) and formula (VI). Thus, formula (V) and (VI) allow to detect antibodies in a subgroup of anti-CCP negative RA patients (FIG. 1).

[3] = test system: anti-VCP1 antibodies in RA and control sera; conditions: cited from earlier work
anti-SmD1 IgG antibodies = conditions: cited from earlier work
[4] = test system: IgG antibodies in RA and NHS sera; assay: ELISA with differently citrullinated EBNA-2(338-358) peptides (Example 6); assay type: binding, human; conditions: for NHS positive sera: 23 normal healthy subjects; for NHS positive sera / RA positive sera: positive = greater than 97.5th percentile of normal control group; for RA positive sera: 24 RA patients; for reactivity with RA sera (in words): 24 RA sera, relevant = more than 25% positive
Text: The role of the number and of the position of citrullines inside EBNA-2(338-358) sequence in the detection of specific antibodies in RA sera was investigated by means of differently citrullinated peptides (Table 1).
It is believed that these two positions relate to two different antigenic regions.

[5] = test system: anti-VCP2 antibodies (IgG) from RA sera; assay: ELISA of affinity-purified anti-VCP2 antibodies from RA sera (Example 5); assay type: binding, human; conditions: four preparations from 4 different RA sera
Procedure: FIG. 4. Isolation of anti-VCP2 antibodies from RA sera was performed according to the method described in example 4.
A citrullinated peptide or MAP according to the present invention was conjugated to CNBr-activated sepharose according to standard procedures known by one skilled in the art. Total immunoglobulins from sera containing anti-CP antibodies were precipitated with 50% saturated ammonium sulfate; the precipitates were dissolved in phosphate buffer (pH 7.4) and dialyzed overnight against PBS. Enriched immunoglobulin preparations were applied to the column, and the flowthrough was collected for subsequent analysis. The column was extensively washed with 20 mM Na2HPO4, 150 mM NaCl (pH 7.2), and the antibodies bound to the column were eluted by 0.1 M glycine buffer (pH 2.8) (0.5 ml/fraction), immediately neutralized with 50 μl Tris 1M (pH 8.0), and dialyzed overnight against PBS. The anti-CP antibody content in the eluates and flowthrough was tested by ELISA.

[6] = WO2004087747, MAP as coating antigen

Substance | NHS positive sera [4] | RA positive sera [4] | further results
(G G D N H G Cit G Cit G Cit G Cit G Cit G G G Cit P G A P G)4 K2 K beta-Alanine [VCP1] |  |  | anti-CP MAP antibodies found in the RA cohort [1]: 47%; RA sera containing antibodies reacting with either one of the two MAP ([2]; comparison of MAP of formula (V) and MAP of formula (VI)): 15%; anti-CCP2 and anti-CCP3 negative sera positive to the peptide ([2]; of 79 RA patients): 9%; anti-CCP2 and anti-CCP3 negative serum positive to both peptides ([2]; of 79 RA patients (1/79)): 1%; positive RA sera ([2]; population of 79 RA patients): 62%; anti-VCP1 antibodies found in RA sera ([3]; Anzilotti et al. 2006, 300 RA patients): 45%; anti-VCP1 antibodies found in controls ([3]; Anzilotti et al. 2006, 327 controls): less than 5%; antibodies detected in RA sera ([3]; Pratesi et al. 2006): 50%; antibodies detected in normal and disease control sera ([3]; Pratesi et al. 2006): less than 5%; antibodies detected in RA sera [3, 6]: 45%; specificity [3, 6]: 95%
EBNA-2(354-373): non deiminated sequence EBNA2(354-373) of Incaprera et al. |  |  | IgG detection in IM and SLE sera (anti-SmD1 IgG antibodies; Incaprera et al. 1998): detection of IgGs; antibody recognition (anti-SmD1 IgG antibodies; systemic lupus erythematosus autoimmunity): recognizes anti-SmD1 IgG antibodies
GQSCitGQSCitGRGCitGRGRGRGKG (GQS[Cit]GQS[Cit]GRG[Cit]GRGRGRGKG) | 1/23 | 12/24 | reactivity with RA sera (in words) [4]: most active peptide in this series
GQSCitGQSCitGRGRGRGRGRGKG (GQS[Cit]GQS[Cit]GRGRGRGRGRGKG) [[Cit^341, Cit^345]EBNA2(338-358)] | 0/23 | 12/24 | 
GQSCitGQSRGRGRGCitGRGRGKG (GQS[Cit]GQSRGRGRG[Cit]GRGRGKG; not fully specified) [[Cit^341, Cit^349]EBNA2(338-358)] | 0/23 | 6/24 | 
GQSCitGQSRGRGRGRGRGCitGKG (GQS[Cit]GQSRGRGRGRGRG[Cit]GKG) [[Cit^341, Cit^355]EBNA2(338-358)] | 1/23 | 8/24 | 
GQSCitGQSRGRGRGRGRGRGKG (GQS[Cit]GQSRGRGRGRGRGRGKG) [[Cit^341]EBNA2(338-358)] | 1/23 | 4/24 | 
GQSRGQSCitGCitGCitGRGRGRGKG (GQSRGQS[Cit]G[Cit]G[Cit]GRGRGRGKG) [[Cit345, Cit^347, Cit^349]EBNA2(338-358)] | 1/23 | 9/24 | 
GQSRGQSCitGCitGRGRGRGRGKG (GQSRGQS[Cit]G[Cit]GRGRGRGRGKG) [[Cit^345, Cit^347]EBNA2(338-358)] | 1/23 | 10/24 | 
GQSRGQSCitGRGCitGCitGRGRGKG (GQSRGQS[Cit]GRG[Cit]G[Cit]GRGRGKG) | 1/23 | 8/24 | 
GQSRGQSCitGRGCitGRGCitGRGKG (GQSRGQS[Cit]GRG[Cit]GRG[Cit]GRGKG) | 1/23 | 10/24 | 
GQSRGQSCitGRGCitGRGRGCitGKG (GQSRGQS[Cit]GRG[Cit]GRGRG[Cit]GKG) | 0/23 | 8/24 | 
GQSRGQSCitGRGCitGRGRGRGKG (GQSRGQS[Cit]GRG[Cit]GRGRGRGKG) [[Cit^345, Cit^349]EBNA2(338-358)] | 0/23 | 15/24 | reactivity with RA sera (in words) [4]: most active and selective di-citrullinated peptide
GQSRGQSCitGRGRGCitGRGRGKG (GQSRGQS[Cit]GRGRG[Cit]GRGRGKG) [[Cit^345, Cit^351]EBNA2(338-358)] | 1/23 | 12/24 | 
GQSRGQSCitGRGRGRGCitGRGKG (GQSRGQS[Cit]GRGRGRG[Cit]GRGKG) [[Cit^345, Cit^353]EBNA2(338-358)] | 2/23 | 6/24 | 
GQSRGQSCitGRGRGRGRGCitGKG (GQSRGQS[Cit]GRGRGRGRG[Cit]GKG) [[Cit^345, Cit^355]EBNA2(338-358)] | 0/23 | 11/24 | 
GQSRGQSCitGRGRGRGRGRGKG (GQSRGQS[Cit]GRGRGRGRGRGKG) [[Cit^345]EBNA2(338-358)] | 1/23 | 9/24 | 
GQSRGQSRGCitGRGCitGRGRGKG (GQSRGQSRG[Cit]GRG[Cit]GRGRGKG; not fully specified) [[Cit^347, Cit^349]EBNA2(338-358)] | 1/23 | 5/24 | 
GQSRGQSRGCitGRGRGRGRGKG (GQSRGQSRG[Cit]GRGRGRGRGKG) [[Cit^347]EBNA2(338-358)] | 1/23 | 6/24 | 
GQSRGQSRGRGCitGCitGRGRGKG (GQSRGQSRGRG[Cit]G[Cit]GRGRGKG) [[Cit^349, Cit^351]EBNA2(338-358)] | 2/23 | 15/24 | reactivity with RA sera (in words) [4]: very active; specificity and selectivity (in words) ([4]; RA versus NHS sera): less specific and selective
GQSRGQSRGRGCitGRGRGRGKG (GQSRGQSRGRG[Cit]GRGRGRGKG) [[Cit^349]EBNA2(338-358)] | 1/23 | 9/24 | 
GQSRGQSRGRGRGCitGCitGRGKG (GQSRGQSRGRGRG[Cit]G[Cit]GRGKG; not fully specified) [[Cit^349, Cit^353]EBNA2(338-358)] | 0/23 | 12/24 | 
GQSRGQSRGRGRGCitGRGCitGKG (GQSRGQSRGRGRG[Cit]GRG[Cit]GKG; not fully specified) [[Cit^349, Cit^355]EBNA2(338-358)] | 0/23 | 9/24 | 
GQSRGQSRGRGRGCitGRGRGKG (GQSRGQSRGRGRG[Cit]GRGRGKG) [[Cit^351]EBNA2(338-358)] | 1/23 | 6/24 | 
GQSRGQSRGRGRGRGCitGRGKG (GQSRGQSRGRGRGRG[Cit]GRGKG) [[Cit^353]EBNA2(338-358)] | 0/23 | 6/24 | 
GQSRGQSRGRGRGRGRGCitGKG (GQSRGQSRGRGRGRGRG[Cit]GKG) [[Cit^355]EBNA2(338-358)] | 2/23 | 3/24 | 
GQSRGQSRGRGRGRGRGRGKG [EBNA2(338-358), reference compound] | 0/23 | 3/24 | reactivity of purified anti-VCP2 IgG with the antigen [5]: no binding; reactivity with RA sera (in words) [4]: does not react with RA sera; also recorded: does not recognize IgG antibodies in a relevant number of RA sera
